Consider eight molecules from patent US8956445B2, “High stability diionic liquid salts” (Sigma-Aldrich Co., priority 2004, dated 2015).

Where two headings read alike, the source gives them in different places.

The procedure of data set [1]:
Thermal stabilities were measured by immobilizing an approximate 0.15-0.20 microns film of the ionic liquid on the inner wall of a fused silica capillary. The capillary was then heated slowly in an oven and a very sensitive flame ionization detector (or mass spectrometer) used to detect any volatilization or decomposition of the ionic liquid. There are several advantages of using this set-up to measure the thermal stabilities of ionic liquids. The thermal stability is measured in the absence of oxygen by purging the capillary with a continuous flow of an inert gas such as helium, hydrogen, or nitrogen. […] Finally, this approach can use mass spectrometry detection to determine the likely volatilization/decomposition products.

For data set [2] the following is noted: values taken from reference 31, cited from earlier work.
The nature of data set [3]: Surface tension (DuNuoy Tensiometer). To be noted: room temperature (23° C.). The format is physicochemical.
Data set [4] is described as follows: Density (2.0 mL volumetric tube, weighing by difference). The format is physicochemical. To be noted: 23° C. On the procedure:
(§1) The densities of the ionic liquids or, more correctly, […] (used synonymously except as indicated otherwise explicitly or by context) was determined at 23° C. by placing 2.0 mL of the ionic liquid in a 2.0 mL volumetric tube and weighing by difference. The melting points of the ionic liquids were determined using a Perkin Elmer Pyris 1 Differential Scanning calorimeter (Boston, Mass.). Typical methods involved using a 10° C./min temperature ramp to determine and identify the first and second order thermal transitions. […] For solid compounds, the melting points were verified using a capillary melting point apparatus. Refractive index measurements were conducted at 23° C. using a Bausch & Lomb Abbe-3L refractometer.

Data set [5] in a line: Refractive index (Abbe-3L refractometer). It counts as physicochemical. To be noted: 23° C. As to the method:
as §1

Data set [6] is described as follows: Solvation interaction parameters by inverse gas-liquid chromatography (Abraham solvation model). The format is physicochemical. As to the method: The preparation of the capillary columns for inverse gas-liquid chromatographic analysis was performed using a previously described procedure.^31 All capillary columns had efficiencies between 2100 to 2500 plates/meter. Characterization of the capillary columns and probe molecule descriptions are listed in supplemental information. Multiple linear regression analysis (MLRA) and statistical calculations were performed using the program Analyse-it (Microsoft, USA).
We have previously reported that the Abraham solvation model, a linear free energy approach that utilizes inverse gas-liquid chromatography to describe the solvation properties of a liquid, can be used to characterize room temperature ionic liquids.^31 Described by equation 1, the model provides the so-called “interaction parameters” (r, s, a, b, l) by using multiple linear regression analysis to fit the retention factor (k, determined chromatographically) to the solute descriptors (R2, π2^H, α2^H, β2^H, log L^16) for a wide variety of probe solute molecules. […] The solvation properties of four dicationic ionic liquids (see Table 4) were evaluated and the interaction parameters compared to those obtained for their traditional monocationic analogues 1-butyl-3-methylimidazolium and 1-butyl-1-methylpyrrolidinium ionic liquids.
Previously we characterized a large number of room temperature ionic liquids in terms of multiple solvation interactions using the solvation parameter model, shown in equation 3.^44 log k=c+rR2+sπ2^H+aα2^H+bβ2^H+l log L^16 [3] This approach utilizes inverse gas-liquid chromatography and allows the use of a large number of probe molecules to deconvolute solute retention in terms of the type and magnitude of individual solvation interactions. The solute descriptors (R2, π2^H, α2^H, β2^H, log L^16) from Equation 3 are obtained from the literature for many probe molecules containing a variety of functional groups.^45 The retention factor is determined chromatographically. The solute descriptors and retention factors are subjected to multiple linear regression analysis to obtain the interaction parameter coefficients (r, s, a, b, l), which ultimately characterize the stationary phase: r is the ability of the diionic liquid containing-stationary phase to interact with π and n electrons of the solute, s is a measure of the dipolarity/polarizability of the diionic liquid containing-stationary phase, a defines the diionic liquid containing-stationary phase hydrogen bond basicity, b is a measure of the hydrogen bond acidity, and/refers to the ability of the diionic liquid containing-stationary phase to separate adjacent members of a homologous series.^46
Test solutes used to determine interaction parameters and solvation thermodynamics were dissolved in dichloromethane. A Hewlett-Packard model 5890 gas chromatograph and a Hewlett-Packard 6890 series integrator were used for all separations. Split injection and flame ionization detection were utilized with injection and detection temperatures of 250° C. Helium was used as the carrier gas with a column inlet pressure of 3.1 psi and flow rate of 1.0 mL/min. Methane was used to determine the dead volume of the column. Multiple linear regression analysis and statistical calculations were performed using the program Analyze-it (Microsoft).

The source holds these as a separate data set.

As for `CCCCn1cc[n+](C)c1.O=S(=O)([N-]S(=O)(=O)C(F)(F)F)C(F)(F)F` [BMIM—NTf2, 1-butyl-3-methylimidazolium bis[(trifluoromethylsulfonyl)imide]], the “thermal stability (volatilization/decomposition temperature)” value in data set [1] (0.15-0.20 micron film in fused silica capillary, helium flow, FID, tested only up to 400° C.) stood at 185 °C. Besides, in data set [2] (40° C.), the “a (hydrogen bond basicity)” value is given as 2.02; the “b (hydrogen bond acidity)” value is on record as 0.36; the “c (interaction parameter table, constant)” value was −2.87; the “l (dispersion forces)” value was 0.63. Also, in data set [2] (40° C.), the “r (interaction via nonbonding and π-electrons)” value is recorded as 0; the “s (dipolarity/polarizability)” value is reported as 1.89. In data set [2] (70° C.), the “a (hydrogen bond basicity)” value was 1.75; the “b (hydrogen bond acidity)” value is listed as 0.38; the “c (interaction parameter table, constant)” value is reported as −3.03; the “l (dispersion forces)” value is listed as 0.56. In addition, in data set [2] (70° C.), the “r (interaction via nonbonding and π-electrons)” value is 0; the “s (dipolarity/polarizability)” value is listed as 1.67. Moreover, in data set [2] (100° C.), the “a (hydrogen bond basicity)” value was 1.55; the “b (hydrogen bond acidity)” value is 0.24; the “c (interaction parameter table, constant)” value is recorded as −3.13; the “l (dispersion forces)” value is reported as 0.49. Further, in data set [2] (100° C.), the “r (interaction via nonbonding and π-electrons)” value was 0; the “s (dipolarity/polarizability)” value is listed as 1.60.
Regarding `Cn1cc[n+](CCCCCCCCC[n+]2ccn(C)c2)c1.O=S(=O)([N-]S(=O)(=O)C(F)(F)F)C(F)(F)F.O=S(=O)([N-]S(=O)(=O)C(F)(F)F)C(F)(F)F` [C9(mim)2-NTf2, 1,9-di(3-methylimidazolium)nonane di-bis[(trifluoromethyl)sulfonyl]imidate], the “Miscibility with Heptane” value is given as “Immiscible” and the “Miscibility with Water” value is listed as “Immiscible”. For the same molecule, in data set [3], the “Surface Tension” value is listed as 43.1 dynes/cm. This molecule also gave a Density in data set [4] of 1.47 g/mL. Moreover, the “Refractive Index” value in data set [5] came to 1.442. For the same molecule, the “thermal stability (volatilization/decomposition temperature)” value in data set [1] is 350-360 °C. In addition, in data set [6] (40° C.), the “a (hydrogen bond basicity)” value stood at 1.83; the “b (hydrogen bond acidity)” value was 0.47; the “c (interaction parameter table, constant)” value is −2.86; the “l (dispersion forces)” value amounted to 0.62. Moreover, in data set [6] (40° C.), the “r (interaction via nonbonding and π-electrons)” value is given as 0.16; the “s (dipolarity/polarizability)” value is on record as 1.81. For the same molecule, in data set [6] (70° C.), the “a (hydrogen bond basicity)” value is given as 1.75; the “b (hydrogen bond acidity)” value turned out to be 0.20; the “c (interaction parameter table, constant)” value is reported as −2.95; the “l (dispersion forces)” value stood at 0.51. Besides, in data set [6] (70° C.), the “r (interaction via nonbonding and π-electrons)” value was found to be 0.11; the “s (dipolarity/polarizability)” value is on record as 1.76. Moreover, in data set [6] (100° C.), the “a (hydrogen bond basicity)” value stood at 1.50; the “b (hydrogen bond acidity)” value came out at 0.15; the “c (interaction parameter table, constant)” value is −3.06; the “l (dispersion forces)” value was found to be 0.43. Also, in data set [6] (100° C.), the “r (interaction via nonbonding and π-electrons)” value is 0.11; the “s (dipolarity/polarizability)” value is recorded as 1.64.
As to `CCCC[N+]1(CCCCCCCCC[N+]2(CCCC)CCCC2)CCCC1.O=S(=O)([N-]S(=O)(=O)C(F)(F)F)C(F)(F)F.O=S(=O)([N-]S(=O)(=O)C(F)(F)F)C(F)(F)F` [C9(bpy)2-NTf2, 1,9-di(butylpyrrolidinium)nonane di-bis[(trifluoromethyl)sulfonyl]imida], the “Miscibility with Heptane” value is recorded as “Immiscible” and the “Miscibility with Water” value was “Immiscible”. Further, in data set [1], the “thermal stability (volatilization/decomposition temperature)” value turned out to be 330 °C.
With `O=S(=O)([N-]S(=O)(=O)C(F)(F)F)C(F)(F)F.O=S(=O)([N-]S(=O)(=O)C(F)(F)F)C(F)(F)F.c1ccc(Cn2cc[n+](CCCCCCCCCCCC[n+]3ccn(Cc4ccccc4)c3)c2)cc1` [C12(benzim)2-NTf2, 1,12-di(3-benzylimidazolium)dodecane di-bis[(trifluoromethyl)sulfonyl]imidate], the “Miscibility with Heptane” value was “Immiscible” and the “Miscibility with Water” value is recorded as “Immiscible”. In addition, the “Surface Tension” value in data set [3] is 41.5 dynes/cm. Besides, the Density in data set [4] stood at 1.37 g/mL. In addition, in data set [5], the “Refractive Index” value worked out at 1.482. Further, the “thermal stability (volatilization/decomposition temperature)” value in data set [1] was 350-360 °C. For the same molecule, in data set [6] (40° C.), the “a (hydrogen bond basicity)” value is reported as 1.96; the “b (hydrogen bond acidity)” value is 0.84; the “c (interaction parameter table, constant)” value was −2.94; the “l (dispersion forces)” value amounted to 0.66. In data set [6] (40° C.), the “r (interaction via nonbonding and π-electrons)” value is 0.11; the “s (dipolarity/polarizability)” value was determined as 1.65. Moreover, in data set [6] (70° C.), the “a (hydrogen bond basicity)” value is listed as 1.75; the “b (hydrogen bond acidity)” value was found to be 0.57; the “c (interaction parameter table, constant)” value is reported as −3.07; the “l (dispersion forces)” value is on record as 0.56. Also, in data set [6] (70° C.), the “r (interaction via nonbonding and π-electrons)” value amounted to 0.07; the “s (dipolarity/polarizability)” value was 1.62. In addition, in data set [6] (100° C.), the “a (hydrogen bond basicity)” value turned out to be 1.44; the “b (hydrogen bond acidity)” value was determined as 0.52; the “c (interaction parameter table, constant)” value is recorded as −3.12; the “l (dispersion forces)” value came out at 0.46. For the same molecule, in data set [6] (100° C.), the “r (interaction via nonbonding and π-electrons)” value is 0; the “s (dipolarity/polarizability)” value is given as 1.47.
For the molecule `Cn1cc[n+](CCC[n+]2ccn(C)c2)c1.O=S(=O)([N-]S(=O)(=O)C(F)(F)F)C(F)(F)F.O=S(=O)([N-]S(=O)(=O)C(F)(F)F)C(F)(F)F` [C3(mim)2-NTf2, 1,3-di(3-methylimidazolium)propane di-bis[(trifluoromethyl)sulfonyl]imidate], the “Miscibility with Heptane” value was “Immiscible” and the “Miscibility with Water” value is “Immiscible”. Moreover, in data set [3], the “Surface Tension” value was found to be 44.7 dynes/cm. Moreover, the Density in data set [4] turned out to be 1.61 g/mL. The “Refractive Index” value in data set [5] stood at 1.440.
Consider `CCCCn1cc[n+](CCCCCCCCC[n+]2ccn(CCCC)c2)c1.O=S(=O)([N-]S(=O)(=O)C(F)(F)F)C(F)(F)F.O=S(=O)([N-]S(=O)(=O)C(F)(F)F)C(F)(F)F` [C9(bim)2-NTf2, 1,9-di(3-butylimidazolium)nonane di-bis[(trifluoromethyl)sulfonyl]imidate], for which the “Miscibility with Heptane” value is “Immiscible” and the “Miscibility with Water” value is “Immiscible”. The “Surface Tension” value in data set [3] is given as 38.0 dynes/cm. In addition, the Density in data set [4] was determined as 1.35 g/mL. In data set [5], the “Refractive Index” value came out at 1.446.
Consider `Cn1cc[n+](CCCCCC[n+]2ccn(C)c2)c1.O=S(=O)([N-]S(=O)(=O)C(F)(F)F)C(F)(F)F.O=S(=O)([N-]S(=O)(=O)C(F)(F)F)C(F)(F)F` [C6(mim)2-NTf2, 1,6-di(3-methylimidazolium)hexane di-bis[(trifluoromethyl)sulfonyl]imida], for which the “Miscibility with Heptane” value was “Immiscible” and the “Miscibility with Water” value is reported as “Immiscible”. In addition, in data set [3], the “Surface Tension” value turned out to be 44.2 dynes/cm. The same molecule had a Density in data set [4] of 1.52 g/mL. Also, in data set [5], the “Refractive Index” value turned out to be 1.441.
Turning to `CCCCn1cc[n+](CCCCCCCCC[n+]2ccn(CCCC)c2)c1.F[P-](F)(F)(F)(F)F.F[P-](F)(F)(F)(F)F` [C9(bim)2-PF6, 1,9-di(3-butylimidazolium)nonane di-hexafluorophosphate], the “Miscibility with Heptane” value is “Immiscible” and the “Miscibility with Water” value is given as “Immiscible”. In data set [3], the “Surface Tension” value is recorded as 48.0 dynes/cm. The molecule further gave a Density in data set [4] of 1.30 g/mL. Further, the “Refractive Index” value in data set [5] came out at 1.439.
